“And” between values parts separate entries of the source, which are not always exact repeats. Equal values may be shown once. Inconclusive results and toxic doses are left out.
Test system: L1210 leukemia ip in BDF1 mice, survival T/C
Assay: NCI In Vivo Anticancer Drug Screen. Data for tumor model L1210 Leukemia (intraperitoneal) in B6D2F1 (BDF1) mice
Conditions: endpoint: mean survival time, higher = longer survival
In short: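 Transplanted-tumor mice were given test agent; controls received vehicle only. Survival readings from the two groups were divided (treated over control).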

[1] = dose: 100.0 mg/kg/injection, schedule: Q04DX002 (ip), vehicle: Klucel (hydroxypropylcellulose) (HPC)
[2] = dose: 6.25 mg/kg/injection, schedule: Q01DX009 (ip), vehicle: Klucel (hydroxypropylcellulose) (HPC)
[3] = dose: 12.5 mg/kg/injection, schedule: Q01DX009 (ip), vehicle: Klucel (hydroxypropylcellulose) (HPC)
[4] = dose: 12.5 mg/kg/injection, schedule: Q04DX003 (ip), vehicle: Klucel (hydroxypropylcellulose) (HPC)
[5] = dose: 50.0 mg/kg/injection, schedule: Q01DX009 (ip), vehicle: saline with Tween-80
[6] = dose: 100.0 mg/kg/injection, schedule: Q01DX009 (ip), vehicle: saline with Tween-80
[7] = dose: 200.0 mg/kg/injection, schedule: Q01DX009 (ip), vehicle: saline with Tween-80
[8] = dose: 100.0 mg/kg/injection, schedule: Q01DX009 (ip), vehicle: Klucel (hydroxypropylcellulose) (HPC)
[9] = dose: 200.0 mg/kg/injection, schedule: Q01DX009 (ip), vehicle: Klucel (hydroxypropylcellulose) (HPC)
[10] = dose: 400.0 mg/kg/injection, schedule: Q01DX009 (ip), vehicle: Klucel (hydroxypropylcellulose) (HPC)

## Nc1nc(N)c2nc(CNc3ccc(C(=O)NC(CCC(=O)O)C(=O)O)cc3)cnc2n1 (configuration not stated)
dose: 0.02 mg/kg/injection, schedule: Q01DX Z (ip), vehicle: saline
  T/C: 170 % of control
dose: 0.02 mg/kg/injection, schedule: Q01DX Z (sc), vehicle: saline
  T/C: 122 % of control
dose: 0.03 mg/kg/injection, schedule: Q01DX Z (ip), vehicle: saline
  T/C: 118 % of control
dose: 0.05 mg/kg/injection, schedule: Q01DX006 (iv), vehicle: saline
  T/C: 114 % of control
dose: 0.05 mg/kg/injection, schedule: Q01DX010 (ip), vehicle: other
  T/C: 98 % of control and 112 % of control
dose: 0.05 mg/kg/injection, schedule: Q01DX Z (im), vehicle: saline
  T/C: 119 % of control
dose: 0.06 mg/kg/injection, schedule: Q01DX Z (ip), vehicle: saline
  T/C: 105 % of control
dose: 0.1 mg/kg/injection, schedule: Q01DX010 (ip), vehicle: other
  T/C: 108 % of control
dose: 0.1 mg/kg/injection, schedule: Q01DX Z (im), vehicle: saline
  T/C: 113 % of control
dose: 0.1 mg/kg/injection, schedule: Q01DX Z (ip), vehicle: saline
  T/C: 119 % of control
dose: 0.2 mg/kg/injection, schedule: Q01DX Z (im), vehicle: saline
  T/C: 154 % of control
dose: 0.2 mg/kg/injection, schedule: Q01DX Z (ip), vehicle: saline
  T/C: 96 % of control and 105 % of control
dose: 0.2 mg/kg/injection, schedule: Q01DX Z (oral), vehicle: saline
  T/C: 119 % of control
dose: 0.2 mg/kg/injection, schedule: Q01DX Z (sc), vehicle: saline
  T/C: 101 % of control and 114 % of control
dose: 0.4 mg/kg/injection, schedule: Q01DX010 (ip), vehicle: other
  T/C: 162 % of control
dose: 0.5 mg/kg/injection, schedule: Q01DX001 (ip), vehicle: saline
  T/C: 111 % of control and 114 % of control
dose: 0.5 mg/kg/injection, schedule: Q01DX Z (oral), vehicle: saline
  T/C: 106 % of control
dose: 0.5 mg/kg/injection, schedule: Q01DX Z (sc), vehicle: saline
  T/C: 103 % of control
dose: 1.0 mg/kg/injection, schedule: Q01DX001 (ip), vehicle: saline
  T/C: 115 % of control
dose: 1.0 mg/kg/injection, schedule: Q01DX Z (ip), vehicle: saline
  T/C: 94 % of control
dose: 2.0 mg/kg/injection, schedule: Q01DX001 (ip), vehicle: saline
  T/C: 117 % of control and 121 % of control
dose: 16.0 mg/kg/injection, schedule: Q01DX001 (ip), vehicle: saline
  T/C: 106 % of control and 124 % of control
dose: 32.0 mg/kg/injection, schedule: Q01DX001 (ip), vehicle: saline
  T/C: 96 % of control and 120 % of control
dose: 64.0 mg/kg/injection, schedule: Q01DX001 (ip), vehicle: saline
  T/C: 105 % of control
dose: 128.0 mg/kg/injection, schedule: Q01DX001 (ip), vehicle: saline
  T/C: 105 % of control and 86 % of control
dose: 256.0 mg/kg/injection, schedule: Q01DX001 (ip), vehicle: saline
  T/C: 100 % of control

## Cc1cnc(/N=C(\N)N2CCOCC2)nc1-c1ccccc1O
[1]
  T/C: 88 % of control
dose: 200.0 mg/kg/injection, schedule: Q04DX002 (ip), vehicle: Klucel (hydroxypropylcellulose) (HPC)
  T/C: 88 % of control

## O=C1OC2C3C=CC(CC3)C2O1 (configuration not stated)
dose: 7.5 mg/kg/injection, schedule: Q04DX002 (ip), vehicle: Klucel (hydroxypropylcellulose) (HPC)
  T/C: 105 % of control
dose: 15.0 mg/kg/injection, schedule: Q01DX001 (ip), vehicle: carboxymethylcellulose (CMC)
  T/C: 101 % of control
dose: 15.0 mg/kg/injection, schedule: Q04DX002 (ip), vehicle: Klucel (hydroxypropylcellulose) (HPC)
  T/C: 99 % of control
dose: 30.0 mg/kg/injection, schedule: Q01DX001 (ip), vehicle: carboxymethylcellulose (CMC)
  T/C: 114 % of control
dose: 30.0 mg/kg/injection, schedule: Q04DX002 (ip), vehicle: Klucel (hydroxypropylcellulose) (HPC)
  T/C: 96 % of control

## Cc1c(C)c(N)c(C)c(C)c1N
[2]
  T/C: 94 % of control
[3]
  T/C: 94 % of control
[4]
  T/C: 101 % of control

## c1ccc2c(c1)nnn2-c1ccncc1
[5]
  T/C: 92 % of control
[6]
  T/C: 98 % of control
[7]
  T/C: 90 % of control

## CCOc1ccc(/C=N/NC(=O)C(O)c2ccccc2)cc1OC (configuration not stated)
[6]
  T/C: 97 % of control
[7]
  T/C: 92 % of control
dose: 400.0 mg/kg/injection, schedule: Q01DX009 (ip), vehicle: saline with Tween-80
  T/C: 90 % of control

## Nc1ccc(S(=O)(=O)NCCO)cc1[N+](=O)[O-]
dose: 100.0 mg/kg/injection, schedule: Q01DX001 (ip), vehicle: Klucel (hydroxypropylcellulose) (HPC)
  T/C: 103 % of control
dose: 100.0 mg/kg/injection, schedule: Q01DX009 (ip), vehicle: saline sonified
  T/C: 96 % of control
dose: 200.0 mg/kg/injection, schedule: Q01DX001 (ip), vehicle: Klucel (hydroxypropylcellulose) (HPC)
  T/C: 106 % of control
dose: 200.0 mg/kg/injection, schedule: Q01DX009 (ip), vehicle: saline sonified
  T/C: 102 % of control
dose: 400.0 mg/kg/injection, schedule: Q01DX001 (ip), vehicle: Klucel (hydroxypropylcellulose) (HPC)
  T/C: 105 % of control
dose: 400.0 mg/kg/injection, schedule: Q01DX009 (ip), vehicle: saline sonified
  T/C: 93 % of control

## NCCCCC(N)C(=O)NCCCCCCNCCCCCCNC(=O)C(N)CCCCN (configuration not stated)
dose: 10.0 mg/kg/injection, schedule: Q01DX Z (ip), vehicle: saline
  T/C: 95 % of control
dose: 30.0 mg/kg/injection, schedule: Q01DX Z (ip), vehicle: saline
  T/C: 95 % of control
dose: 100.0 mg/kg/injection, schedule: Q01DX001 (ip), vehicle: saline
  T/C: 90 % of control
dose: 100.0 mg/kg/injection, schedule: Q01DX Z (ip), vehicle: saline
  T/C: 95 % of control
dose: 200.0 mg/kg/injection, schedule: Q01DX001 (ip), vehicle: saline
  T/C: 103 % of control

## O=C(O)c1ccc(-c2ccc(O)cc2)cc1
[8]
  T/C: 98 % of control
[9]
  T/C: 101 % of control
[10]
  T/C: 102 % of control

## C=C(Cl)CNC(=O)c1ccc([N+](=O)[O-])cc1
dose: 100.0 mg/kg/injection, schedule: Q04DX003 (ip), vehicle: Klucel (hydroxypropylcellulose) (HPC)
  T/C: 98 % of control
dose: 200.0 mg/kg/injection, schedule: Q04DX003 (ip), vehicle: Klucel (hydroxypropylcellulose) (HPC)
  T/C: 104 % of control

## C=CCn1c2c(c3ccccc31)CCC2
[5]
  T/C: 86 % of control
[6]
  T/C: 93 % of control

## O=C(CCc1ccc(Cl)cc1)Nc1ccccc1
dose: 25.0 mg/kg/injection, schedule: Q04DX002 (ip), vehicle: Klucel (hydroxypropylcellulose) (HPC)
  T/C: 97 % of control
dose: 50.0 mg/kg/injection, schedule: Q04DX002 (ip), vehicle: Klucel (hydroxypropylcellulose) (HPC)
  T/C: 86 % of control
[1]
  T/C: 93 % of control

## Oc1c(Cl)cc(Cl)cc1Sc1cc(Cl)cc(Cl)c1O
dose: 100.0 mg/kg/injection, schedule: Q04DX002 (ip), vehicle: saline
  T/C: 114 % of control
dose: 200.0 mg/kg/injection, schedule: Q04DX002 (ip), vehicle: saline
  T/C: 100 % of control
dose: 400.0 mg/kg/injection, schedule: Q04DX002 (ip), vehicle: saline
  T/C: 114 % of control

## CC(=[N-])CC(C)=O.CC(=[N-])CC(C)=O.[Ni+2]
dose: 3.0 mg/kg/injection, schedule: Q01DX009 (ip), vehicle: Klucel (hydroxypropylcellulose) (HPC)
  T/C: 90 % of control
dose: 3.12 mg/kg/injection, schedule: Q01DX001 (ip), vehicle: Klucel (hydroxypropylcellulose) (HPC)
  T/C: 97 % of control
dose: 3.12 mg/kg/injection, schedule: Q04DX003 (ip), vehicle: Klucel (hydroxypropylcellulose) (HPC)
  T/C: 98 % of control
dose: 3.13 mg/kg/injection, schedule: Q01DX009 (ip), vehicle: Klucel (hydroxypropylcellulose) (HPC)
  T/C: 97 % of control
dose: 6.0 mg/kg/injection, schedule: Q01DX009 (ip), vehicle: Klucel (hydroxypropylcellulose) (HPC)
  T/C: 95 % of control
dose: 6.25 mg/kg/injection, schedule: Q01DX001 (ip), vehicle: Klucel (hydroxypropylcellulose) (HPC)
  T/C: 100 % of control
[2]
  T/C: 97 % of control
dose: 6.25 mg/kg/injection, schedule: Q04DX003 (ip), vehicle: Klucel (hydroxypropylcellulose) (HPC)
  T/C: 97 % of control and 106 % of control
dose: 12.0 mg/kg/injection, schedule: Q01DX009 (ip), vehicle: Klucel (hydroxypropylcellulose) (HPC)
  T/C: 96 % of control
dose: 12.5 mg/kg/injection, schedule: Q01DX001 (ip), vehicle: Klucel (hydroxypropylcellulose) (HPC)
  T/C: 105 % of control
[3]
  T/C: 98 % of control
[4]
  T/C: 102 % of control and 103 % of control
dose: 25.0 mg/kg/injection, schedule: Q01DX001 (ip), vehicle: Klucel (hydroxypropylcellulose) (HPC)
  T/C: 100 % of control

## CC(=O)c1cccc(NC(=O)N(C)Cc2ccccc2)c1
[8]
  T/C: 109 % of control
[9]
  T/C: 100 % of control
[10]
  T/C: 112 % of control

— PubChem BioAssay AID248 (DTP/NCI, 2004)
